Assay results from patent US20050267067A1, “Radical reaction inhibitors, method for inhibition of radical reactions, and use thereof” (priority 2002, published 2005).

Tests used:
[1] = Modification of L-lysine by lipid peroxides (protein carbonyl, OLAARPs); details: for OLAARPs Formation: (%) / Protein carbonyl Formation: (%): L-lysine, versus no saccharide; for Formed OLAARPs / Formed Protein carbonyl: 37° C., 24 hours
Procedure: In this experiment, saccharide solutions were prepared to give an equal total saccharide molar concentration in each solution.
As a negative control, PBS was used.
To five milliliters of either of the above saccharide solutions for testing or the negative control was added 10 mg of calf serum albumin (BSA) or L-lysine, followed by dissolving. To each of the resulting solutions was added 25 μg of 2,4-decadienal or malondialdehyde (MDA) as a lipid peroxide, followed by reaction at 37° C. for 24 hours. After completion of the reaction, protein carbonyl and reaction products of oxidized lipids/aminoacids (OLAARPs) formed as aldehyde adducts were quantified on the calorimetric method. […] The formation levels of protein carbonyl and OLAARPs were determined based on the absorbances obtained in this experiment, in terms of the molar absorbance coefficient for each molecule as disclosed in Biochim. Biophys. Acta, No. 1,258, pp. 319-327 (1985).
To each of the resulting mixtures was added 600 μl of 30% trichloroacetic acid, and the mixture was allowed to stand at 0° C. for one hour and centrifuged at 10,000 rpm for 15 min to obtain a precipitate, followed by washing the resulting precipitate four times with two milliliters of ethanol/ethylacetate (1:1), respectively, adding 1.5 ml of 6M-guanidine hydrochloride/20 mM-NaPi/TFA (pH 2.3) to the resultant, allowing the mixture to stand at 37° C. for 30 min, and measuring the absorbance of the resulting mixture at a wavelength of 580 nm, ε=35,000 M^−1 cm^−1. […] To any one of the resulting mixtures was added two milliliters of a 12.5 mM DNPH/2.5 N-hydrochloride solution, and the resulting mixture was allowed to stand at 45° C. for 30 min, followed by measuring the absorbance of the resulting mixture at a wavelength of 580 nm, E=35,000 M^−1 cm^−1.

[2] = Inhibition of hydroxy radical formation (H2O2/iron sulfate, DMPO spin trap, ESR); details: for Amount of formed hydroxy radical: ESR peak ratio to Mn2+ standard, relative value; for Hydroxy radical formation (%): versus system with no saccharide
Procedure: Each of the resulting mixtures was mixed to initiate reaction, injected into a cell for measuring electron spin resonance spectrum (ESR), set to a detector, and measured for formation level of hydroxy radical at a prescribed period of time after initiating reaction. […] For measurement of ESR, “Free Radical Monitor JES-FR30” was used, and the formation level of hydroxy radical was determined by calculating a ratio of a peak level detected first after initiating the measurement among the characteristic signal peaks characteristic of 5,5-dimethyl-1-pyrroline-oxide-OH (hydroxy radical), used as a spin trapping agent, and a peak level of Mn^2+ of an external standard installed in the apparatus of “JES-FR30”, and expressed as relative values in Table 1.

[3] = Oxidation of rat small intestinal mucosal enzyme solution by AAPH (conjugated diene, TBARS); format: biochemical
Procedure: As a model system for examining the influence of cyclotetrasaccharide on small intestinal mucous disorders, there was provided a system for examining the influence of cyclotetrasaccharide on the oxidation of a rat small intestinal mucosal enzyme solution by 2,2-azo-bis(2-amidinopropane)-dihydrochloric acid (AAPH).
To two grams of a rat small intestinal mucosal acetone powder, commercialized by Sigma Chemical Company, St. Louis, Mo., USA, was added 20 ml of 50 mM PBS (pH 7.2) and homogenized in ice bath. The mixture was centrifuged at 10,000 rpm for 10 min to obtain a supernatant for use as a rat small intestinal mucosal enzyme solution containing 10 mg/ml of proteins. A half milliliter of the rat small intestinal mucosal enzyme solution, 0.5 ml of a 100 mM AAPH solution, and 0.5 ml of a 200 mM of the crystalline cyclotetrasaccharide pentahydrate prepared in Experiment 1-1 were mixed, followed by incubation at 37° C. for […]. During the incubation, the mixture was sampled at two and six hours after initiating the incubation for quantifying the formed conjugated diene, while the specimens sampled at six hours after initiating the incubation were quantified for the formed TBARS.

[4] = test system: low density lipoprotein (LDL); assay: Oxidation of low density lipoprotein (LDL) by AAPH, absorbance at 234 nm; format: biochemical; details: for Absorbance at a wavelength of 234 nm Average: 120 min after initiating the reaction
Procedure: An experiment for examining the influence of cyclotetrasaccharide on the oxidation inhibition for low density lipoprotein (LDL) was conducted as follows: Two and half milliliters of 0.5 mg/ml of a low density lipoprotein (LDL) in phosphate buffered saline (PBS, pH 7.4) was mixed with 2.5 ml of 100 mM PBS solution containing any one of the crystalline cyclotetrasaccharide pentahydrate, crystalline cyclotetrasaccharide monohydrate, and anhydrous crystalline cyclotetrasaccharide, which had been prepared in Experiment 1-1, in PBS or 2.5 ml of PBS free of cyclotetrasaccharide. The resulting mixture was admixed with 50 μl of 100 mM 2,2′-azo-bis(2-amidinopropane)dihydrochloride (AAPH) in PBS (pH 7.4) and reacted at 37° C. The reaction was continued for 240 min to examine changes on time course. […] In Table 2, the results for crystalline cyclotetrasaccharide pentahydrate are only shown because crystalline cyclotetrasaccharide pentahydrate, crystalline cyclotetrasaccharide monohydrate, and anhydrous crystalline cyclotetrasaccharide gave similar results. Also, the influence of cyclotetrasaccharide on the oxidation of a low density lipoprotein (LDL) by AAPH was examined by mixing a 2.5 ml solution containing 0.5 mg/ml of a low density lipoprotein (LDL) in PBS with 2.5 ml of a PBS solution in which the crystalline cyclotetrasaccharide pentahydrate, prepared in Experiment 1-1, had been dissolved to give a concentration of 2 mM, 10 mM or 20 mM, or 2.5 ml of PBS with no cyclotetrasaccharide; and measuring for absorbance at a wavelength of 234 nm for each of the resulting mixtures similarly as above.

[5] = added lipid peroxide 2,4-decadienal
[6] = added lipid peroxide malondialdehyde (MDA)
[7] = 2,4-decadienal, listed as cyclotetrasaccharide
[8] = MDA, listed as cyclotetrasaccharide

SMILES: OC[C@H]1O[C@H](O[C@H]2O[C@H](CO)[C@@H](O)[C@H](O)[C@H]2O)[C@H](O)[C@@H](O)[C@@H]1O [α, α-Trehalose, α, α-trehalose, reference compound]
- OLAARPs Formation: (%) ([1]; 2,4-decadienal): (70) %
- Protein carbonyl Formation: (%) ([1]; 2,4-decadienal): (55) %
- OLAARPs Formation: (%) ([1]; MDA): (38) %
- Protein carbonyl Formation: (%) ([1]; MDA): (67) %
- Formed OLAARPs [1, 5]: 5.72 μmol/g-L-lysine
- Formed Protein carbonyl [1, 5]: 7.47 μmol/g-L-lysine
- Formed OLAARPs [1, 6]: 3.24 μmol/g-L-lysine
- Formed Protein carbonyl [1, 6]: 3.99 μmol/g-L-lysine

SMILES: OCC1OC2OCC3O[C@H](O[C@H]4C(O)C(CO)OC(OCC5O[C@H](O[C@@H](C1O)C2O)C(O)C(O)[C@@H]5O)C4O)C(O)C(O)[C@@H]3O (stereo partly drawn) [Cyclotetrasaccharide, cyclo{→6}-α-D-glucopyranosyl-(1→3)-α-D-glucopyranosyl-(1→6)-α-D-glucopyranosyl-(1→3)-α-D-glucopyranosyl-(1→}]
- OLAARPs Formation: (%) ([1]; 2,4-decadienal): (67) %
- Protein carbonyl Formation: (%) ([1]; 2,4-decadienal): (48) %
- OLAARPs Formation: (%) [1, 7]: about 67%
- Protein carbonyl Formation: (%) [1, 7]: about 48%
- OLAARPs Formation: (%) ([1]; MDA): (39) %
- Protein carbonyl Formation: (%) ([1]; MDA): (66) %
- OLAARPs Formation: (%) [1, 8]: about 39%
- Protein carbonyl Formation: (%) [1, 8]: about 66%
- Formed OLAARPs [1, 5]: 5.44 μmol/g-L-lysine
- Formed Protein carbonyl [1, 5]: 6.42 μmol/g-L-lysine
- Formed OLAARPs [1, 6]: 3.39 μmol/g-L-lysine
- Formed Protein carbonyl [1, 6]: 3.93 μmol/g-L-lysine
- Amount of formed hydroxy radical ([2]; 15 mM saccharide): 1.009
- Hydroxy radical formation (%) ([2]; 15 mM saccharide): (34) %
- Hydroxy radical formation (%) ([2]; 15 mM saccharide, listed as cyclotetrasaccharide): about 34%
- Amount of formed hydroxy radical ([2]; 38 mM saccharide): 0.265
- Hydroxy radical formation (%) ([2]; 38 mM saccharide): (9) %
- Hydroxy radical formation (%) ([2]; 38 mM saccharide, listed as cyclotetrasaccharide): about 9%
- Amount of formed hydroxy radical ([2]; 75 mM saccharide): 0.228
- Hydroxy radical formation (%) ([2]; 75 mM saccharide): (8) %
- Amount of formed hydroxy radical ([2]; 150 mM saccharide): 0.125
- Hydroxy radical formation (%) ([2]; 150 mM saccharide): (4) %
- Formed conjugated diene ([3]; reaction time 0 hr, AAPH, 37° C.): 0.00 μg/mg-protein
- Formed conjugated diene ([3]; reaction time 2 hr, AAPH, 37° C.): 2.46 μg/mg-protein
- Conjugated diene formation: (%) ([3]; reaction time 2 hr, versus system with no cyclotetrasaccharide): (15) %
- Formed conjugated diene ([3]; reaction time 6 hr, AAPH, 37° C.): 61.84 μg/mg-protein
- Conjugated diene formation: (%) ([3]; reaction time 6 hr, versus system with no cyclotetrasaccharide): (60) %
- Formed TBARS ([3]; six hours after initiating the incubation, AAPH, 37° C.): 3.71 µg/mg-protein
- TBARS formation (%) ([3]; six hours, versus system with no cyclotetrasaccharide): (61) %
- Formation percentage (%) of LDL oxide ([4]; 1 mM cyclotetrasaccharide, 120 min): 76%
- Absorbance at a wavelength of 234 nm Average ([4]; 1 mM cyclotetrasaccharide): 0.163
- Formation percentage (%) of LDL oxide ([4]; 5 mM cyclotetrasaccharide, 120 min): 35%
- Absorbance at a wavelength of 234 nm Average ([4]; 5 mM cyclotetrasaccharide): 0.076
- Absorbance at a wavelength of 234 nm Average ([4]; 10 mM cyclotetrasaccharide): 0.028
- Absorbance at a wavelength of 234 nm ([4]; 50 mM cyclotetrasaccharide, 0 min after adding AAPH): 0.0
- Formation percentage (%) of LDL oxide ([4]; 50 mM cyclotetrasaccharide, 30 min, versus system with no cyclotetrasaccharide): 14%
- Absorbance at a wavelength of 234 nm ([4]; 50 mM cyclotetrasaccharide, 30 min after adding AAPH): 0.018
- Formation percentage (%) of LDL oxide ([4]; 50 mM cyclotetrasaccharide, 60 min, versus system with no cyclotetrasaccharide): 20%
- Absorbance at a wavelength of 234 nm ([4]; 50 mM cyclotetrasaccharide, 60 min after adding AAPH): 0.042
- Formation percentage (%) of LDL oxide ([4]; 50 mM cyclotetrasaccharide, 120 min, versus system with no cyclotetrasaccharide): 21%
- Absorbance at a wavelength of 234 nm ([4]; 50 mM cyclotetrasaccharide, 120 min after adding AAPH): 0.046
- Formation percentage (%) of LDL oxide ([4]; 50 mM cyclotetrasaccharide, 180 min, versus system with no cyclotetrasaccharide): 23%
- Absorbance at a wavelength of 234 nm ([4]; 50 mM cyclotetrasaccharide, 180 min after adding AAPH): 0.056
- Absorbance at a wavelength of 234 nm ([4]; 50 mM cyclotetrasaccharide, 240 min after adding AAPH): 0.064
